Laboratory results as given in US20070105890A1, “Novel condensed imidazole derivative” (DAINIPPON SUMITOMO PHARMA CO., LTD, priority 2003, published 2007).
pIC50: −log10 of the molar value. Where a name gives a salt, the structure may show the parent alone.

biological target: T1, DPP-IV enzyme (Bos taurus, UniProt P81425); assay: In Vitro DPP-IV Inhibitory Effect Measurement Test (1), bovine plasma; type: biochemical; settings: substrate Glycyl-L-Proline 4-Methyl-Coumaryl-7-Amide, Table 1
T1 construct: Bovine plasma containing DPP-IV enzyme was diluted with assay buffer; from tissue; host or cells: bovine plasma
Description: In Vitro DPP-IV Inhibitory Effect Measurement Test (1)
Bovine plasma containing DPP-IV enzyme was diluted with assay buffer (25 mM Tris-HCl, 140 mM NaCl, 10 mM KCl, pH=7.9) and 50 μL of the dilution was added to a micro assay plate. After 1 μL of a solution of each compound was added, mixing was conducted, followed by incubation at room temperature. A substrate (Glycyl-L-Proline 4-Methyl-Coumaryl-7-Amide, Peptide Laboratories Co., Ltd.) was diluted to 0.2 mM with the assay buffer, and 50 μL of this solution was added and then stirred, followed by incubation at room temperature. Thereafter, the reaction was terminated by the addition of 100 μL of a 25% aqueous acetic acid solution. The intensity of fluorescence at an excitation wavelength of 360 nm and a measuring wavelength of 460 nm was measured by the use of a fluorescent plate reader. The difference in intensity of fluorescence between a background well in which the reaction had been terminated by previously adding a 25% aqueous acetic acid solution before the addition of the substrate solution and a control well to which no compound had been added was taken as 100%. The intensity of fluorescence of a well containing the compound was interpolated and the residual enzyme activity in the case of the addition of the compound was calculated as a relative value.
(§1) Compounds of Examples were used in this test.

T1 sequence (P81425 38-765 limits assumed): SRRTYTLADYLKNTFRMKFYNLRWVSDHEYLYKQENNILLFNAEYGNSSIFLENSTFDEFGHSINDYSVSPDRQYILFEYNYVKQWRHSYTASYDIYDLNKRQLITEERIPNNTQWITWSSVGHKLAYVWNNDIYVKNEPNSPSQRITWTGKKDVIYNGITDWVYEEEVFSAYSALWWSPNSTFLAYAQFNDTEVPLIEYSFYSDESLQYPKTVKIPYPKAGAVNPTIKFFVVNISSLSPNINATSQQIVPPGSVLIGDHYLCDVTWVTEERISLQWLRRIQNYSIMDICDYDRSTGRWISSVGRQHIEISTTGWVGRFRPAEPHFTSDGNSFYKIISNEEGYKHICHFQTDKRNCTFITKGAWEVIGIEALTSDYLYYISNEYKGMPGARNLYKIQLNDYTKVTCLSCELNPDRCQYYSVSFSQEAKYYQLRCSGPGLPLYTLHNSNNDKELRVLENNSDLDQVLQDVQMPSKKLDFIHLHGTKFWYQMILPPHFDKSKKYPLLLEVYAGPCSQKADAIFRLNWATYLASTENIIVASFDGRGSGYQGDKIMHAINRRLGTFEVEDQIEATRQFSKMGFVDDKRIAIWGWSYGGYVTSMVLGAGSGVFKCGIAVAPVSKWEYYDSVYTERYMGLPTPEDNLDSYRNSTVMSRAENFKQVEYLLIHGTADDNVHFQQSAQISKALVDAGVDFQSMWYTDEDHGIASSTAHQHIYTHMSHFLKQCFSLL

First: Cn1c(C#N)cc2nc(N3CCC[C@@H](N)C3)n(Cc3ccccc3Cl)c2c1=O [Example 2, 2-[(3R)-3-Aminopiperidin-1-yl]-3-(2-chlorobenzyl)-5-methyl-4-oxo-4,5-dihydro-3H-imidazo[4,5-c]pyridine-6-carbonitrile hydrochloride]
Second: Cn1ccc2nc(N3CCC[C@@H](N)C3)n(Cc3ccccc3Cl)c2c1=O [Example 4, 2-[(3R)-3-Aminopiperidin-1-yl]-3-(2-chlorobenzyl)-5-methyl-3,5-dihydro-4H-imidazo[4,5-c]pyridin-4-one]
The pIC50 of the first is 0.79 log units higher: 7.96 for the first, 7.17 for the second.

Compared with `N[C@@H]1CCCN(c2nc3ccn(CC(=O)c4ccccc4)c(=O)c3n2Cc2ccccc2Cl)C1` [Example 7], `N[C@@H]1CCCN(c2nc3ccn(-c4cccc(F)c4)c(=O)c3n2Cc2ccccc2Cl)C1` [Example 30] is 2.16 log units lower in pIC50: 8.85 for the first, 6.69 for the second. The first is the more potent here.

Going from `Cn1ccc2nc(N3CCC[C@@H](N)C3)n(Cc3cc(F)ccc3Cl)c2c1=O` [Example 11] to `N[C@@H]1CCCN(c2nc3cc(C(=O)O)[nH]c(=O)c3n2Cc2ccccc2Cl)C1` [Example 13], the pIC50 rises from 7.36 to 8.30 (0.94 log units). The second is the more potent here.

Compound `COc1cccc(CC(=O)c2cc3nc(N4CCC[C@@H](N)C4)n(Cc4ccccc4Cl)c3c(=O)n2C)c1` [Example 38] has a pIC50 of 6.95.

biological target: T2, DPP-IV enzyme (Homo sapiens, UniProt P27487); assay: In Vitro DPP-IV Inhibitory Effect Measurement Test (2), human serum; type: biochemical; settings: DPP-IV in human serum (diluted 10-fold); substrate Glycyl-L-Proline 4-Methyl-Coumaryl-7-Amide 100 μM; Table 2
T2 construct: Human serum containing DPP-IV enzyme was used in an experiment after being diluted with assay buffer; from tissue; host or cells: human serum
Description: In Vitro DPP-IV Inhibitory Effect Measurement Test (2)
Human serum containing DPP-IV enzyme was used in an experiment after being diluted with assay buffer (25 mM Tris-HCl, 140 mM NaCl, 10 mM KCl, pH 7.9) (finally, diluted 10-fold). Each of solutions of each test compound having various concentrations was added to the diluted serum and the resulting mixture was incubated at room temperature. Then, a substrate (Glycyl-L-Proline 4-Methyl-Coumaryl-7-Amide, Peptide Laboratories Co., Ltd.) was added thereto to a final concentration of 100 μM and the reaction was carried out at room temperature.
as §1

T2 sequence (P27487 39-766 limits assumed): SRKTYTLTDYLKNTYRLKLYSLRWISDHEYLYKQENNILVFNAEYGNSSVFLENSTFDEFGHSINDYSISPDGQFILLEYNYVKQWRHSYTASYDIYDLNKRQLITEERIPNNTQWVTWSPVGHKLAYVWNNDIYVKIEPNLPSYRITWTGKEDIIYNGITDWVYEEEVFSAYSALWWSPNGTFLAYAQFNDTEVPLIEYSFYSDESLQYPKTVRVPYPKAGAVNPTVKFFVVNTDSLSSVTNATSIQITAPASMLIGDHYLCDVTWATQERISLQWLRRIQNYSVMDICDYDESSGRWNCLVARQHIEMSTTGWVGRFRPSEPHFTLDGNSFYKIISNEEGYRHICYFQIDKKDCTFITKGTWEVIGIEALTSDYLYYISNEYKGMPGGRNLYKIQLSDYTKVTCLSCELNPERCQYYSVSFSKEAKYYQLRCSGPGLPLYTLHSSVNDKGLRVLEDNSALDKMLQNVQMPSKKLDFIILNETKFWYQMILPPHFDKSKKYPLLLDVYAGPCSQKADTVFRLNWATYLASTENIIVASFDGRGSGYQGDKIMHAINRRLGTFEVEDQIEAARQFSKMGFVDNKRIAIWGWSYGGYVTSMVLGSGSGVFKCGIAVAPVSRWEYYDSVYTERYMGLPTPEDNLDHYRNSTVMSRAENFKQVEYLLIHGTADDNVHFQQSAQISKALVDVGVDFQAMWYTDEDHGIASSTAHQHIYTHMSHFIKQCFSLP

Going from `N[C@@H]1CCCN(c2nc3c4cc(C(=O)O)ccc4[nH]c(=O)c3n2Cc2ccccc2Cl)C1` [Example 48, 2-{(3R)-3-Aminopiperidin-1-yl}-3-(2-chlorobenzyl)-4-oxo-4,5-dihydro-3H-imidazo[4,5-c]quinoline-8-carboxylic acid hydrochloride] to `Cn1c(=O)c2c(nc(N3CCC[C@@H](N)C3)n2Cc2ccccc2Cl)c2csc(C(=O)O)c21` [Example 102, 2-[(3R)-3-Aminopiperidin-1-yl]-3-(2-chlorobenzyl)-5-methyl-4-oxo-4,5-dihydro-3H-imidazo[4,5-d]thieno[3,4-b]pyridine-6-carboxylic acid hydrochloride], the pIC50 rises from 7.35 to 7.92 (0.57 log units). The second is the more potent here.

`Cn1c(=O)c2c(nc(N3CCC[C@@H](N)C3)n2Cc2ccccc2Cl)c2cc3c(cc21)C(=O)OC3` [Example 90, 2-[(3R)-3-Aminopiperidin-1-yl]-3-(2-chlorobenzyl)-5-methyl-5,9-dihydro-3H-furo[3,4-g]imidazo[4,5-c]quinoline-4,7-dione hydrochloride] and `Cn1c(=O)c2c(nc(N3CCC[C@@H](N)C3)n2Cc2ccccc2Cl)c2c(C(=O)O)c(F)ccc21` [Example 97, 2-[(3R)-3-aminopiperidin-1-yl]-3-(2-chlorobenzyl)-8-fluoro-5-methyl-4-oxo-4,5-dihydro-3H-imidazo[4,5-c]quinoline-9-carboxylic acid hydrochloride] are within 0.2 log units of each other in pIC50: 7.96 for the first, 7.85 for the second.

In the case of `COC(=O)c1c2c(nn1Cc1ccc(OC)cc1)c1nc(N3CCC[C@@H](N)C3)n(Cc3ccccc3Cl)c1c(=O)n2C` [Example 94, Methyl 7-[(3R)-3-aminopiperidin-1-yl]-6-(2-chlorobenzyl)-2-(4-methoxybenzyl)-4-methyl-5-oxo-2,4,5,6-tetrahydroimidazo[4,5-d]pyrazolo[4,3-b]pyridine-3-carboxylate hydrochloride], the pIC50 was 7.38.
